Measurements from US20220133687A1, “METHODS OF TREATING AND PREVENTING NEURODEGENERATIVE DISEASES WITH HGF ACTIVATING COMPOUNDS” (Synaptogenix, Inc., priority 2020, published 2022).
Read-outs that look alike come from different tables or passages of the source.

Key:
PKC [1] = details: cited from earlier work
PKC-ε = assay: Mouse dosing study: brain PKC-ε downregulation; assay type: in vivo; details: mice, 25 μg/m^2 three consecutive weekly doses vs lower doses
Description: (§1) The following metrics may be used to evaluate dosing regimens: induction of brain postsynaptic anchoring protein PSD-95, upregulation of BDNF levels in brain, upregulation of HGF levels in brain, minimal downregulation of PKC-c levels, and elevation of brain and plasma concentrations of bryostatin or other HGF activating compound. Groups of 2-3 mice may be formed and housed in an approved research animal facility. Water may be given ad libitum. A first study involves three groups of mice with animals in each group dosed weekly for 1, 2, 3, or 6 consecutive weeks. Each group has its own control group containing the same number of mice. For example, mice in the first, second and third groups may receive an intravenous (i.v.) injection of 10 μg/m^2, 15 μg/m^2, and 25 μg/m^2 dose of bryostatin or other HGF activating compound respectively. For each dose, mice in that group may receive a single injection of bryostatin or other HGF activating compound weekly for a predetermined number of consecutive weeks. Following dosing, mice are sacrificed and the blood and brain of each animal is collected for further analysis.
A similar observation can be made concerning the levels of the synaptogenesis marker PSD-95. […] Continued weekly dosing at 10 μg/m^2 for another three consecutive weeks (total of 6 consecutive weeks) may result in downregulation. […]

PSD-95 = assay: Mouse dosing study: PSD-95 levels; assay type: in vivo; details: mice, 25 μg/m^2 i.v. once per week, after three weeks
Description: as §1
A similar observation can be made concerning the levels of the synaptogenesis marker PSD-95. […] Continued weekly dosing at 10 μg/m^2 for another three consecutive weeks (total of 6 consecutive weeks) may result in downregulation.

BDNF = assay: Mouse dosing study: brain BDNF levels; assay type: in vivo; details: mice
Description: as §1
At a dose of 25 μg/m^2, the levels of brain BDNF may increase with each successive week of dosing, that is, brain BDNF levels may be greatest after three consecutive weeks of dosing. […]

PKC [2] = biological target: T1, PKC; details: competition with [3H] phorbol dibutyrate; cited from earlier work
T1 construct: rows headed: Ki for PKC

[3] = system: squamous cell carcinoma and melanoma; details: used topically; cited from earlier work
NCI 60 cell line screen = details: cited from earlier work
protein kinase C = details: (−)-enantiomer; read-out: potency EC50; cited from earlier work

Q: Which results are given for `CCCCCCCC(=O)O[C@H]1/C(=C/C(=O)OC)C[C@H]2C[C@H](CO)OC(=O)C[C@H](O)C[C@@H]3CCC[C@H](C[C@@H]4CCO[C@H](/C=C/C(C)(C)[C@]1(O)O2)O4)O3` [Analog 1]?
A: affinity for PKC (in words) (PKC [1]): highest affinity for PKC; Ki (PKC [1]; read-out: PKC Affin): 0.25 nM

Q: For `CCC/C=C/C=C/C(=O)O[C@H]1/C(=C/C(=O)OC)C[C@H]2C[C@H]([C@@H](C)O)OC(=O)C[C@H](O)C[C@@H]3C[C@H](OC(C)=O)C(C)(C)[C@](O)(C[C@@H]4C/C(=C/C(=O)OC)C[C@H](/C=C/C(C)(C)[C@]1(O)O2)O4)O3` [Bryostatin-1], which “PKC-ε downregulation in brain” value (PKC-ε) is on record?
A: Its value is “may not produce more PKC-c downregulation”.

Q: What about the “amounts of PSD-95 in brain and blood samples” value (PSD-95) of the same compound?
A: Its value is “higher amounts of PSD-95”.

Q: What about the “levels of brain BDNF” value (BDNF; 15 μg/m^2 weekly for three consecutive weeks) of the same compound?
A: The value was “some increase”.

Q: And the “levels of brain BDNF” value (BDNF; 25 μg/m^2 weekly)?
A: The value was “maximum increase”.

Q: With `CC1=C[C@]23C(=O)[C@@H](C=C(COC(=O)c4ccccc4)[C@@H](O)[C@]2(O)[C@H]1OC(=O)c1ccccc1)[C@H]1[C@@H](C[C@H]3C)C1(C)C` [Ingenol 3,20-dibenzoate] as the compound, how does the Ki (PKC [2]) read?
A: Its Ki is 240 nM.

Q: Which antitumor activity [3] does the source give for `C/C=C(/C)C(=O)O[C@H]1C(C)=C[C@]23C(=O)[C@@H](C=C(CO)[C@@H](O)[C@]12O)[C@H]1[C@@H](C[C@H]3C)C1(C)C` [Ingenol-3-angelate] here?
A: The antitumor activity was “exhibits antitumor activity”.

Q: Which “GI50 (concentration required to inhibit growth by 50%)” value (NCI 60 cell line screen) does the source give for `CC1=CC[C@H](C)C(C)(C)[C@@H]1/C=C/C(C)=C/CC[C@@]1(CO)[C@H](CCCO)/C(=C(/C)C=O)CC[C@]1(C)O` [Iripallidal] here?
A: Its value is “micromolar to nanomolar range”.

Q: With `CCCCCCCCc1ccc2c3c(c[nH]c13)C[C@@H](CO)NC(=O)[C@H](C(C)C)N2C` [Octylindolactam V] as the compound, how does the EC50 (protein kinase C) read?
A: Its EC50 is 29 nM.
